The source of these data is patent EP1100483B1, “GLUCOCORTICOID-SELECTIVE ANTI-INFLAMMATORY AGENTS” (Abbott Laboratories, priority 1998, dated 2000).

One test concerns the target T1, human glucocorticoid receptor-α [GRX] isoform (Homo sapiens, UniProt P04150).
T1 construct: purchased Ligand Pharmaceuticals (San Diego, CA); host or cells: insect SF21 cells (baculovirus)
T1 sequence (P04150 1-777): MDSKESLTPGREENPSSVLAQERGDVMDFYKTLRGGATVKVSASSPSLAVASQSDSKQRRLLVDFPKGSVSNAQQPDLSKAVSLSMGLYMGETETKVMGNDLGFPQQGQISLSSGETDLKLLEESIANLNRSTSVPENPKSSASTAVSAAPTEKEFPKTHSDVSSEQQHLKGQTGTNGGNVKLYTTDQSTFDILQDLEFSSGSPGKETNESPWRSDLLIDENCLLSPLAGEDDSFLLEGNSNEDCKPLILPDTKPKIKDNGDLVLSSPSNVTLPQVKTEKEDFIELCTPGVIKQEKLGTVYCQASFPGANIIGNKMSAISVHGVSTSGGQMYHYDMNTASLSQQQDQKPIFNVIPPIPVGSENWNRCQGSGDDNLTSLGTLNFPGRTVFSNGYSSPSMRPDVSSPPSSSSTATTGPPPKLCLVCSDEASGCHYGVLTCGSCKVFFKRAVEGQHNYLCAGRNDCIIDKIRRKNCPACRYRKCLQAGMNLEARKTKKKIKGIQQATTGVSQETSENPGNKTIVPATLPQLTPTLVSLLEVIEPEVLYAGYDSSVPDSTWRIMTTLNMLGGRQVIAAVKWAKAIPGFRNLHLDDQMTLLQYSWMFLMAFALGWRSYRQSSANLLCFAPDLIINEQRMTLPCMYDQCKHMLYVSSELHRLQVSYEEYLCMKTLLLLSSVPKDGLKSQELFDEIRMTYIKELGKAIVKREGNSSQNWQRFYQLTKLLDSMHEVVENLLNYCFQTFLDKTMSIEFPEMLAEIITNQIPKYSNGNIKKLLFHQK
The test can be described thus: glucocorticoid receptor (GR) cytosol binding assay, [3H]-dexamethasone competition.
Conditions: not given
From the text:
For glucocorticoid receptor (OR) cytosol binding assays, the procedure described in Anal. […] Briefly, cytosol preparations of human glucocorticoid receptor-α [GRX] isoform and human progesterone receptor-A [PRA] isoform were obtained from Ligand Pharmaceuticals (San Diego, CA). Both receptor cDNAs were cloned into baculovirus expression vectors and expressed in insect SF21 cells. […] Glass fiber type C multiscreen MAFC NOB plates were from Millipore ( Burlington, MA). Hydroxyapatide Bio-Gel HTP gel was obtained from Bio-Rad Laboratories (Hercules. CA). Tris(hydroxymethyl)aminomethane (Tris), ethylenediaminetetraacetic acid (EDTA), glycerol, dithiothreitol (DTT) and sodium moylybdate were obtained from Sigma Chemicals (St. Louis, MO). Microscint-20 scintillation fluid was obtained from Packard Instrument (Meriden, CT). […] GRX and PRA binding reactions were performed in Millipore Multiscreen plates. […] Specific binding was defined as the difference between binding of [^3H]Dex in the absence and in the presence of 1µM unlabeled Dex. After an overnight incubation, 50 µL of hydroxyapatite (25 % weight/volume) slurry were added to each well and plates were incubated for 10 min at 4 °C in a plate shaker. Plates were suctioned with a Millipore vacuum manifold and each well was rinsed with 300 µL of ice-cold binding buffer. A 250 µL aliquot of Packard Microscint-20 was added to each well and the wells were shaken at room temperature for 20 minutes. The amount of radioactivity was determined with a Packard TopCount plate reader.
`CN(C)c1ccc(C(c2ccc(N(C)C)cc2)c2cc(NC(=O)c3ccc([N+](=O)[O-])cc3)ccc2Cl)cc1` [Example 60, 4',4" bis(dimethylamino)-2-chloro-5-(4-nitrobenzamido)triphenylmethane] yielded an inhibition constant Ki of 4650 nM.

The same test, now with this note: [3H]-Dex ~0.9 nM, GRX cytosol, 4 °C overnight; Cheng-Prusoff; read-out: Ki (nM) GR.
Consider `CN(C)c1ccc(C(Oc2ccc(Cl)cc2)c2cc([N+](=O)[O-])ccc2Cl)cc1` (stereo not drawn) [Example 53, 4-chlorophenyl-[(4'-dimethylaminophenyl)-(2-chloro-5-nitrophenyl)methyl] ether], for which the inhibitory constant (Ki) was determined as 788 nM.
Regarding `CN(C)c1ccc(C(Nc2ccccc2)c2cc([N+](=O)[O-])ccc2Cl)cc1` (stereo not drawn) [Example 55, phenyl-[(4'-dimethylaminophenyl)-(2-chloro-5-nitrophenyl)methyl] amine], the Ki came out at 1680 nM.
Same read-out and setting: the figure for `CN(C)c1ccc(C(c2ccccc2)c2cc([N+](=O)[O-])ccc2Cl)cc1` (stereo not drawn) [Example 56, 4'-dimethylamino-2-chloro-5-nitrotriphenylmethane] is 1030 nM; for `CN(C)c1ccc(C(O)(c2ccccc2)c2ccccc2Cl)cc1` (stereo not drawn) [Example 57, 4'-dimethylamino-2-chlorotriphenylmethanol] it is 2030 nM.
Turning to `CN(C)c1ccc(C(c2ccccc2)c2ccccc2Cl)cc1` (stereo not drawn) [Example 58, 4'-dimethylamino-2-chlorotriphenylmethane], the Ki came out at 4300 nM.
Same read-out and setting: the figure for `CN(C)c1ccc(C(c2ccc(N(C)C)cc2)c2cc(N)ccc2Cl)cc1` [Example 59, 4',4" bis(dimethylamino)-5-amino-2-chlorotriphenylmethane] is 4600 nM; for `CN(C)c1ccc(C(c2ccc(N(C)C)cc2)c2cc(NC(=O)C3CC3)ccc2Cl)cc1` [Example 62, 4',4" bis(dimethylamino)-2-chloro-5-(cyclopropylcarbamido)-triphenylmethane] it is 4600 nM; for `CN(C)c1ccc(C(c2ccc(N(C)C)cc2)c2cc(N(S(C)(=O)=O)S(C)(=O)=O)ccc2Cl)cc1` [Example 63, 4',4" bis(dimethylamino)-2-chloro-5-(dimethylsulphonimido)triphenylmethane] it is 4600 nM.
On the same count and under the same terms, to `COC(=O)Nc1ccc(Cl)c(C(c2ccc(N(C)C)cc2)c2ccc(N(C)C)cc2)c1` [Example 64, 4',4" bis(dimethylamino)-2-chloro-5-(methoxycarbonylamino)triphenylmethane] belongs 5270 nM; to `CN(C)c1ccc(C(c2ccc(N(C)C)cc2)c2cc(N=Cc3ccco3)ccc2Cl)cc1` [Example 65, 4',4" bis(dimethylamino)-2-chloro-5-(2-furanylmethylimino)triphenylmethane], 1790 nM; to `CN(C)c1ccc(C(c2ccc(N(C)C)cc2)c2cc(NCc3ccco3)ccc2Cl)cc1` [Example 66, 4',4" bis(dimethylamino)-2-chloro-5-(2-furanylmethylamino)triphenylmethane], 757 nM.
